Where a SMILES comes first, the peptide text is derived from it.
Legend:
[1] = target: T1, purified human synovial sPLA2 (human Type IIA sPLA2) (Homo sapiens, UniProt P14555); assay: sPLA2 inhibition, 3H-arachidonate-labelled E. coli membrane assay; format: biochemical; conditions: fixed peptide concentration (5 μM); 3H-labelled E. coli membrane assay; read-out: % Inhibition (mean ± SD)
T1 construct: purchased Cayman Chemicals, USA
T1 sequence (P14555 21-144): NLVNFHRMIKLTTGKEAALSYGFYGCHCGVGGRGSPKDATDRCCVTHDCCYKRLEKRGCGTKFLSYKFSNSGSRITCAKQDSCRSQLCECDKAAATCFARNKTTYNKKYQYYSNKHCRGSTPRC
Method: In brief, [^3H] arachidonate-labeled E. coli membranes (0.005 mCi/mL; 5.8 μCi/μmol, NEN) were used as substrate, and 100 mM Tris-HCl—25 mM CaCl2, pH 7.5 solution as an assay buffer. The reaction mixture contained 20 μL of substrate, 0.85 pmole of purified human synovial sPLA2 (human Type IIA sPLA2, Cayman Chemicals, USA), and an increasing concentrations of the family of synthetic peptides derived from the sequence of PIP. The final volume of the reaction mixture was adjusted to 250 μL with an assay buffer. After incubation of the mixture (37° C., 1 h) and termination of the reaction with 750 μL of chilled PBS containing 1% BSA, microfuge tubes containing the samples were centrifuged (10,000 g at 4° C. for 15 min), and 500 μL aliquots of the supernatant taken to measure the amount of [^3H]-labeled arachidonate released from the E. coli membrane using liquid scintillation counting (Multipurpose Scintillation Counter LS 6500; Beckman, USA). As controls, sPLA2 was pre-incubated with the assay buffer alone. All samples, including controls, were performed in triplicate and plotted as the percentage inhibition relative to negative controls.
A sigmoid dose response curve was generated to allow calculation of the IC50 values. All samples were performed in triplicate. Results were analyzed by nonlinear regression with GraphPad Prism (version 2.01) and expressed as the percentage of inhibition relative to control values.

[2] = target: T2, MMP-2 (Oryctolagus cuniculus, UniProt P50757); assay: Gelatin zymography of HIG-82 culture supernatant pre-incubated with inhibitors (FIG. 4A); format: biochemical, rabbit; conditions: APMA-activated HIG-82 supernatant, 5 μM peptide, 1 h at 25° C.
T2 construct: endogenous in cells; host or cells: HIG-82 rabbit synoviocytes (ATCC CRL-1832), IL-1β-induced, culture supernatant
T2 sequence (P50757 110-662): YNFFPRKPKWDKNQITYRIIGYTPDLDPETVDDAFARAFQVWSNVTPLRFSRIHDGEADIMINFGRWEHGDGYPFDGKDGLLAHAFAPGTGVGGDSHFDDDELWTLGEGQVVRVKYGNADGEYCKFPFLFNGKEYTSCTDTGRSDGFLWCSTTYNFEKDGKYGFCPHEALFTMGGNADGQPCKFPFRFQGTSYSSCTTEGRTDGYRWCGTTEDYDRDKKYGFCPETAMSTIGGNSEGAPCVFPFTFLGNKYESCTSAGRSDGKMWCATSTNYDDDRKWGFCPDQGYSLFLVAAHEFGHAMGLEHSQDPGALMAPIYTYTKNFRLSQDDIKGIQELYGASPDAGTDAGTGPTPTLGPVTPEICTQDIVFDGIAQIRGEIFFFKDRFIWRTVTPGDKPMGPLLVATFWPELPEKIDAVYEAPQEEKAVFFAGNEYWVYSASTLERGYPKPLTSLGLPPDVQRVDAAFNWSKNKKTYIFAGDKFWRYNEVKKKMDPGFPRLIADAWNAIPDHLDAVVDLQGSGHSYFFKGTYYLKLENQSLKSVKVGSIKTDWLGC
Method: (§1) Gelatinase activity in the supernatants from cells induced with IL-1β (5 ng) for 48 h was analyzed by gelatin zymography. (A) Supernatants (activated with final 1 mM APMA at 30° C. for 30 min) were pre-incubated with various inhibitors. (5 μM peptides or 1-2 μM Calbiochem MMP inhibitor II) for 1 h at 25° C. prior to zymographic analyses—Lane 1, without activation (no inhibitor); Lane 2, with activation (no inhibitor); Lanes 3-8, with activation plus inhibitor: 3, P-NT-II; 4, PIP [59-67] monomer; 5, PIP [57-67] dimer; 6, PIP [59-67] dimer; 7 and 8, positive control MMP Inhibitor II (Calbiochem) at 1 and 2 μM concentrations. (B) Rabbit synovial fibroblasts were stimulated by IL-1β in the presence or absence of 1-10 μM of PIP [59-67] dimer for 48 h. Culture supernatants were concentrated by centrifugation (Centricon centrifugal filter devices, M.W. cutoff 30,000) and activated with APMA (1 mM final) before measurement of gelatinase activity by gelatin zymography. Lanes: 1 (−peptide−APMA); 2 (−peptide+APMA); 3 (+1 μM peptide+APMA); 4 (+5 μM peptide+APMA); 5 (+7.5 μM peptide+APMA); 6 (+10 μM peptide+APMA). […]

[3] = target: T3, MMP-9 (Oryctolagus cuniculus, UniProt P41246); assay: as above; format: biochemical, rabbit; conditions: APMA-activated HIG-82 supernatant, 5 μM peptide, 1 h at 25° C.
T3 construct: endogenous in cells; host or cells: HIG-82 rabbit synoviocytes (ATCC CRL-1832), IL-1β-induced, culture supernatant
T3 sequence (P41246 107-707): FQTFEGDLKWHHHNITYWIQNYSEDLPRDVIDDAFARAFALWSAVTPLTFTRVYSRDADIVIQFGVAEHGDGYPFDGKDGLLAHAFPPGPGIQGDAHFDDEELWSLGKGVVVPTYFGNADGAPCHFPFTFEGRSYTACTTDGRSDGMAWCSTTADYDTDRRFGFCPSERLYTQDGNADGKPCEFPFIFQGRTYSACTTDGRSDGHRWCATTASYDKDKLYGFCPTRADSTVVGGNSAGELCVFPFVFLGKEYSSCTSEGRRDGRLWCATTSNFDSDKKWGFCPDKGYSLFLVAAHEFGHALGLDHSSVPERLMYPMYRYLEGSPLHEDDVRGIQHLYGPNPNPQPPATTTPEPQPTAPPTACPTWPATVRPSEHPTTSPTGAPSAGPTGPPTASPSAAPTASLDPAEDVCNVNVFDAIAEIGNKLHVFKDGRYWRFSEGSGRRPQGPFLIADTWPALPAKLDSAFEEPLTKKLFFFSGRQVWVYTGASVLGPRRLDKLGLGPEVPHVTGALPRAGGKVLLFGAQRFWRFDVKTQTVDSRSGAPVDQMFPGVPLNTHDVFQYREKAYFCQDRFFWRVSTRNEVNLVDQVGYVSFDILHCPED
Method: as §1

`CC[C@H](C)[C@H](NC(=O)[C@H](CC(=O)O)NC(=O)[C@@H](N)C(C)C)C(=O)N[C@@H](Cc1c[nH]cn1)C(=O)N[C@H](C(=O)N[C@@H](Cc1c[nH]c2ccccc12)C(=O)N[C@@H](CC(=O)O)C(=O)NCC(=O)N[C@H](C(=O)N[C@H](C(=O)N[C@@H](CC(=O)O)C(=O)N[C@H](C(=O)N[C@@H](Cc1c[nH]cn1)C(=O)N[C@H](C(=O)N[C@@H](Cc1c[nH]c2ccccc12)C(=O)N[C@@H](CC(=O)O)C(=O)NCC(=O)N[C@H](C(=O)O)C(C)C)C(C)C)[C@@H](C)CC)C(C)C)C(C)C)C(C)C` [PIP [59-67] dimer] (H-VDIHVWDGVVDIHVWDGV-OH; N-terminus and C-terminus assumed) was tested. Which inhibition at 5 µM [1] did it give?
The inhibition at 5 µM was 74.5 ± 4.21%.

What about the “MMP-2 gelatinase activity vs control” value [2] of the same compound?
The value was “insignificant”.

And the “MMP-9 gelatinase activity vs control” value [3]?
The value was “insignificant”.

Reference: patent US20070037253A1, “Methods and compositions for treatment of arthritis and cancer” (priority 2003, published 2007)
